≈ marks a conversion by molar mass, not a printed value.
What was measured:
Water Solubility Assay = format: physicochemical; settings: Milli Q water, room temperature, stirred 3 hours, HPLC; for solubility at 3 h: water, thermodynamic from solid
Method: The sample suspension was stirred at room temperature for 3 hours. The suspension was transferred into an eppendorf vial and centrifuged at 14000 rpm for 8 minutes. The supernant solution was then assayed by HPLC.
The suspension was stirred at room temperature for 3 hours and then centrifuged at 14000/min for 8 minutes. The supernant was diluted 10 times by Milli Q water. The final solution was then assayed by HPLC.
Accurately weigh out 2.5-3.0 mg of AG014447 reference standard into 10 ml volumetric flask, and then bring to volume with MeOH. Mix thoroughly.
Buffer: 25 mM ammonium phosphate buffer (pH 2.5)
Organic Modifier: Acetonitrile (ACN)
Column: Waters Symmetry C18, 4.6×150 mm, 5 μm;
The solubility of the sample is calculated by the equation below: […]
Where A is the peak area of the sample; As is the peak area of the standard; Cs is the concentration of the standard solution; D is the dilution factor. [drawing 2]

A549 cells = assay: Cytotoxicity Potentiation Assay; format: cell-based; settings: test compound 0.4 μm, with topotecan, ratio of IC50 of topotecan alone to IC50 in combination
Method: Cytotoxicity Potentiation Assay: A549 cells (ATCC, Rockville, Md.) were seeded into 96-well cell culture plates (Falcon brand, Fisher Scientific, Pittsburgh, Pa.) 16 to 24 hours before experimental manipulation. Cells were then treated with a test compound (or a combination of test compounds where indicated) for either 3 days or 5 days, at a concentration of 0.4 μm. At the end of treatments, relative cell number was determined either by MTT assay or SRB assay. For the MTT assay, 0.2 μg/μl of MTT (3-(4,5-dimethylthiazol-2-yl)-2,5-diphenyltetrazolium bromide, Sigma Chemical Co., St. Louis, Mo.) was added to each well of a plate, and the plate was incubated in a cell-culture incubator for 4 hours. Metabolized MTT in each well was solubilized in 150 μl of DMSO (Sigma Chemical Co.) with shaking and quantified with a Wallac 1420 Victor plate reader (EG&G Wallac, Gaithersburg, Md.) at 540 nm. For the SRB assay, cells were fixed with 10% trichloroacetic acid (Sigma Chemical Co) for an hour at 4° C. […] The bound dye was measured photometrically with the Wallac Victor plate reader at 515 nm. The ratio of the OD (optical density) value of a compound-treated culture to the OD value of a mock-treated culture, expressed in percentage, was used to quantify the cytotoxicity of a compound. […] For the compounds of the invention, PF50 values were determined by testing with topotecan.

For `CNCc1ccc(-c2[nH]c3cc(F)cc4c3c2CCNC4=O)cc1.CS(=O)(=O)O` [Mesylate, 8-Fluoro-2-(4-methylaminomethyl-phenyl)-1,3,4,5-tetrahydro-azepino[5,4,3-cd]indol-6-one Mesylate], which solubility at 3 h (Water Solubility Assay) is on record?
The solubility at 3 h was 15500 µg/mL.

Which solubility at 3 h (Water Solubility Assay) does the source give for `CNCc1ccc(-c2[nH]c3cc(F)cc4c3c2CCNC4=O)cc1.O=C(O)C(O)C(O)C(=O)O` [Tartrate, 8-Fluoro-2-(4-methylaminomethyl-phenyl)-1,3,4,5-tetrahydro-azepino[5,4,3-cd]indol-6-one Tartrate] here?
Its solubility at 3 h is 1100 µg/mL.

Which solubility at 3 h (Water Solubility Assay) does the source give for `CC(=O)O.CNCc1ccc(-c2[nH]c3cc(F)cc4c3c2CCNC4=O)cc1` [Acetate, 8-fluoro-2-(4-methylaminomethyl-phenyl)-1,3,4,5-tetrahydro-azepino[5,4,3-cd]indol-6-one Acetate] here?
The solubility at 3 h was 8800 µg/mL.

For `CNCc1ccc(-c2[nH]c3cc(F)cc4c3c2CCNC4=O)cc1` [Free base, 8-fluoro-2-(4-methylaminomethyl-phenyl)-1,3,4,5-tetrahydro-azepino[5,4,3-cd]indol-6-one], which Solubility (Water Solubility Assay) is on record?
Its Solubility is 180 µg/mL (≈ 0.557 mM).

And the “Cytotoxicity Potentiation PF50” value (A549 cells)?
The value was 2.4.

For `CNCc1ccc(-c2[nH]c3cc(F)cc4c3c2CCNC4=O)cc1` [Gluconate, 8-Fluoro-2-(4-methylaminomethyl-phenyl)-1,3,4,5-tetrahydro-azepino[5,4,3-cd]indol-6-one Gluconate], which Solubility (Water Solubility Assay) is on record?
Its Solubility is greater than 128000 µg/mL.

Which Solubility (Water Solubility Assay) does the source give for `CNCc1ccc(-c2[nH]c3cc(F)cc4c3c2CCNC4=O)cc1` [Glucuronate, 8-Fluoro-2-(4-methylaminomethyl-phenyl)-1,3,4,5-tetrahydro-azepino[5,4,3-cd]indol-6-one Glucuronate] here?
The Solubility was 89000 µg/mL (≈ 275 mM).

With `CNCc1ccc(-c2[nH]c3cc(F)cc4c3c2CCNC4=O)cc1` [Phosphate, 8-Fluoro-2-(4-methylaminomethyl-phenyl)-1,3,4,5-tetrahydro-azepino[5,4,3-cd]indol-6-one Phosphate] as the molecule, how does the Solubility (Water Solubility Assay; Phosphate) read?
The Solubility was 2800 µg/mL.

With `CNCc1ccc(-c2[nH]c3cc(F)cc4c3c2CCNC4=O)cc1.Cl` [Hydrochloride, 8-Fluoro-2-(4-methylaminomethyl-phenyl)-1,3,4,5-tetrahydro-azepino[5,4,3-cd]indol-6-one Hydrochloride] as the molecule, how does the solubility at 3 h (Water Solubility Assay) read?
Its solubility at 3 h is 1600 µg/mL.

From patent publication US20040248879A1, “Salts of tricyclic inhibitors of poly(ADP-ribose) polymerases” (Agouron Pharmaceuticals, Inc., priority 2003, published 2004)
